# Source: patent US20260306526A1, “COMBINATION THERAPY FOR BACTERIAL INFECTIONS COMPRISING ZINC-CHELATOR, BETA-LACTAM ANTIBIOTIC AND SERINE BETA-LACTAMASE INHIBITOR” (priority 2023, published 2026)
# Several values for one entry are separate records, joined by “and”; a condition that tells them apart may be missing. Equal entries are not always repeated.
# Experiments:
# [1] = test system: Klebsiella pneumoniae Kpn St147; test: MIC determination, checkerboard broth microdilution, meropenem + zinc chelator + avibactam (Example 1); type: cell-based
# Method: Antimicrobial susceptibility testing (AST) by broth microdilution was performed according to The European Committee on Antimicrobial Susceptibility Testing.
# Sensititre™ FINMER meropenem 64-0.03 μg/ml plates (Thermo Fischer Diagnostics custom plates; YFINMER) were modified by adding avibactam to rows 3 to 8 in concentrations of 64, 16, 8, 4, 1 and 0.25 μg/ml, respectively. The zinc chelator was added to the wells of the plate, where applicable. Three plates were made per experiment, one without the zinc chelator (plate 1), one with 16 μg/ml of the zinc chelator (plate 2) and one with 32 μg/ml of the zinc chelator (plate 3). The first row in all plates was used as a positive control for meropenem only, and the second row included the zinc chelator in addition to meropenem (no avibactam added to rows 1 or 2). The zinc chelator was added at the indicated concentration to rows 3-8 of plates 2 and 3.
# The effect of the combination of zinc chelator/MEM/avibactam was tested on a clinically isolated Klebsiella pneumoniae Kpn St147 actively constitutionally expressing the two resistance mechanisms NDM-1 and KPC-2 simultaneously. As a negative control, bacteria+meropenem was tested alone. As a positive control, bacteria+MEM+zinc chelator was used. In Table 1 and 2, concentrations (μg/ml) of meropenem are given in the top row left to right and avibactam concentrations (μg/ml) are given top to bottom in column 1. […] A blank cell indicates no growth.
# The fractional inhibitory concentration (FIC) is defined as the concentration that kills when used in combination with another agent divided by the concentration that has the same effect when used alone. The FIC index (FICI) for the combination of two agents is the sum of their individual FIC values. […]
# [2] = test system: Acinetobacter baumannii ST15; test: MIC determination, fixed concentration of sBLI (Examples 11-18); type: cell-based; conditions: NDM-1, OXA-51, ADC-263, caMHB
# Method: Antimicrobial susceptibility testing (AST) by broth microdilution (MIC determination) was performed according to The European Committee on Antimicrobial Susceptibility Testing (EUCAST) guidelines (see Reading guide for broth microdilution Version 5.0, 2024: https://www.eucast.org).
# For combinations containing meropenem as the antibiotic, Sensititre™ FINMER meropenem 64-0.03 μg/mL plates (Thermo Fischer Diagnostics custom plates; YFINMER) were used in most of the experiments. For other antibiotics (and for meropenem whenever a higher start concentration than 64 μg/mL was needed) sterile clear round bottom polystyrene (non-treated) 96-well microplates (Corning 3788) were used for making serial two-fold dilutions of the antibiotic in cation-adjusted Mueller Hinton II broth (caMHB; Thermo Scientific, T3462, containing 29.4 μM Zn^2+ or MILLIPORE, 90922-500G, containing 5.6 μM Zn^2+), across the columns of the microtiter plate (128-0.06 μg/mL; columns 1-12).
# The checkerboard plates were all modified by adding a serine β-lactamase inhibitor (sBLI) at a fixed concentration of 16 μg/mL. Additionally, the zinc chelator was added at various fixed concentrations. Samples were mixed so that all plates contained a control containing antibiotic alone (no sBLI, no zinc chelator), a sample containing antibiotic and sBLI (double combination; no zinc chelator), and a sample containing antibiotic, sBLI and zinc chelator (triple combination). All test wells used in each plate contained growth medium (caMHB), and inoculated bacteria at a final inoculum between 3-7×10^5 CFU/mL. […] Synergy for the triple combination (antibiotic, sBLI, and zinc chelator) was defined as when the MIC in any of the rows containing the zinc chelator in combination with antibiotic and sBLI (triple combination), was lower than for antibiotic alone and lower than for the antibiotic and sBLI double combination.
# (§1) An X in rows 1~4 in the table indicates growth of the bacterial inoculum, while a blank cell indicates no growth. Concentrations (μg/mL) of MEM are given in row 0. SUL and the zinc chelator were added in fixed concentrations (SUL at 16 μg/mL in rows 2-4, zinc chelator at 16 μg/mL in row 3 and at 8 μg/mL in row 4). As a control, the effect of MEM alone was tested (row 1). All wells contained bacterial growth medium (caMHB, 29.4 μM Zn^2+) and were inoculated with the test bacterium. The grey cells indicate the meropenem MIC.
# as §1, with “AMOX” for “MEM”, “amoxicillin” for “meropenem”
# Two technical replicates were performed for each sample. An X in rows 1-8 in the table indicates growth of the bacterial inoculum, while a blank cell indicates no growth. Concentrations (μg/mL) of AMP are given in row 0. SUL and the zinc chelator were added in fixed concentrations (SUL at 16 μg/mL in rows 3-8, zinc chelator at 16 μg/mL in rows 5-6 and at 8 μg/mL in rows 7-8). As a control, the effect of AMP alone was tested (rows 1-2). All wells contained bacterial growth medium (caMHB, 29.4 μM Zn^2+) and were inoculated with the test bacterium. […]
# [3] = test system: bacteria which rely on SBLs; conditions: with MEM; cited from earlier work
compound,measurement,setting,value
CN(C[C@H](O)[C@@H](O)[C@H](O)[C@H](O)CO)C(=O)c1ccc(CN(Cc2ccccn2)Cc2ccccn2)nc1 [zinc chelator],FICI Zinc Chelator,"[1]; zinc chelator 16 μg/mL, MEM/avibactam 0.5/0.25 (r9), 0.25/1 (r10), 0.25/4 (r11), 0.06/8 (r12) μg/mL",0.008
same,FICI Zinc Chelator,"[1]; zinc chelator 32 μg/mL, MEM/avibactam 0.5/0.25 (r13), 0.12/1 (r14), 0.06/4 (r15), 0.06/8 (r16) μg/mL",0.016
same,amplification of the inhibitory effect,[1]; zinc chelator at 16 μg/ml with MEM + avibactam,about 64 fold
same,Synergy with the zinc chelator observed at concentration,"[2]; Example 11, with MEM and SUL 16 μg/mL, 29.4 μM Zn2+",16 µg/mL
same,Synergy with the zinc chelator observed at concentration,"[2]; Example 12, with AMOX and SUL 16 μg/mL, 29.4 μM Zn2+",16 µg/mL
same,Synergy with the zinc chelator observed at concentration,"[2]; Example 13, with AMP and SUL 16 μg/mL, 29.4 μM Zn2+",16 µg/mL
same,Synergy with the zinc chelator observed at concentration,"[2]; Example 14, with PIP and TAZ 16 μg/mL, 29.4 μM Zn2+",16 µg/mL and 8 µg/mL
same,Synergy with the zinc chelator observed at concentration,"[2]; Example 18, with PIP and TAZ 16 μg/mL, 5.6 μM Zn2+",16 µg/mL and 8 µg/mL
same,effect of combination,[3],no effect
